Here are results for 10 molecules from patent publication US11377442B2, “Small molecule agonists and antagonists of NR2F6 activity” (ZANDER THERAPEUTICS, INC., priority 2016, dated 2022).

The structures appear in SMILES notation. Where two headings read alike, the source gives them in different places.

Holding throughout (format): cell-based
Assay [1] concerns the target T1, NR2F6 (Homo sapiens, UniProt P10588).
T1 construct: expressed in transfected cells; also transient transfection
T1 sequence (P10588 1-404): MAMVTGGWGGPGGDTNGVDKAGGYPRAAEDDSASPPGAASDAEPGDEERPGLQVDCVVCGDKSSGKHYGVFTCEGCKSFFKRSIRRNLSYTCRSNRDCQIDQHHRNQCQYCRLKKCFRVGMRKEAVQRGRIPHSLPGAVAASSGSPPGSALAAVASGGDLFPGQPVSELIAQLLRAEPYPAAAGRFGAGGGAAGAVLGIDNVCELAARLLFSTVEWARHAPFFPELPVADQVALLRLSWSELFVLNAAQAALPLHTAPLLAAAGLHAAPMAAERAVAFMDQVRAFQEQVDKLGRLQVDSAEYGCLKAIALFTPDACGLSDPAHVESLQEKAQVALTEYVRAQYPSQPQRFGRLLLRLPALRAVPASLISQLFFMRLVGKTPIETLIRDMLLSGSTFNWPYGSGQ
Nature of the assay: NR2F6 agonist screening, Firefly signal cmpd/DMSO.

Assay [2] concerns Renilla. As to the kind of experiment: Renilla signal in NR2F6 agonist screening, cmpd/DMSO. The following applies: for fold induction at 2 µM / fold induction at 10 µM / fold induction at 40 µM: Renilla, read-out: Renilla F4, cmpd/DMSO (mean).
Assay [3] deals with T2, ERα (Homo sapiens, UniProt P03372).
T2 construct: expressed in transfected cells
T2 sequence (P03372 1-595): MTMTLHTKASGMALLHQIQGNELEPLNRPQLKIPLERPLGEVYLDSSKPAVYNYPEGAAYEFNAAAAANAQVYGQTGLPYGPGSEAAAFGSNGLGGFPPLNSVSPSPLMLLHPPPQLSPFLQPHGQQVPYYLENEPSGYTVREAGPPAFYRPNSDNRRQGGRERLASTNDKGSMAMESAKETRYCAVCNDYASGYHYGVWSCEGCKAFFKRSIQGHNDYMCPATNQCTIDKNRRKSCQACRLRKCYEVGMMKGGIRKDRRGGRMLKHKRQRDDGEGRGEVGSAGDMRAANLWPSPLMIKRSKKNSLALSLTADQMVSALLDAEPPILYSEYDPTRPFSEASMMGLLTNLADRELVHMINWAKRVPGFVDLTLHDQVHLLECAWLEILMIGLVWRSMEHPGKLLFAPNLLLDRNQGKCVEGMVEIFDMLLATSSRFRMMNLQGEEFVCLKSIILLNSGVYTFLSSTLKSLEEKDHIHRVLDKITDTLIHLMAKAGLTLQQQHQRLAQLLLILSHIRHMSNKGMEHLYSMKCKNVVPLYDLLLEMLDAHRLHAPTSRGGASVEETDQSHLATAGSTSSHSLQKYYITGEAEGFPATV
Nature of the assay: Counterscreening, Firefly signal with ERα transient transfection (Firefly_ERa). On the technique in general: The purpose of a counterscreen is to sort out artefacts and off-target activity.

Assay [4] deals with Renilla_ERa. As to the kind of experiment: Renilla signal in ERα counterscreen (Renilla_ERa). The following applies: for fold induction at 2 µM / fold induction at 10 µM / fold induction at 40 µM: read-out: Renilla ERalpha transient, cmpd/DMSO (mean).
The target in assay [5] is T2, ERα. Nature of the assay: Counterscreening, Firefly signal with ERα transient transfection (Firefly_ERa). The following applies: 10 uM. The procedure: The methodology for screening candidate compounds as NR2F6 agonists was as follows: For primary screening, hit criteria was ACT %>DMSO control+5*SD (DSO control) at 10 μM, or any compound with S/B>2. For rescreening, hit criteria was ACT %>DMSO control+3*SD (DSO control) in each replicate at 10 μM. For counterscreening, hit criteria was mean ACT<DMSO control+3*SD (DMSO control) with ERα transient transfection in duplicate at 10 μM.

Take `CC1CCN(c2nc(NCCN3CCOCC3)nc(N3CC4CC(C3)c3cccc(=O)n3C4)n2)CC1` (stereo not drawn) [Compound 43]: the “Firefly F4, cmpd/DMSO (mean)” value in assay [1] (2 uM, clone F4) came to 1.0; in assay [1] (10 uM, clone F4), 0.9; in assay [1] (40 uM, clone F4), 0.8. Besides, the fold induction at 2 µM in assay [2] (2 uM, clone F4) amounted to 1; in assay [4] (2 uM), 1.1. For the same molecule, the fold induction at 10 µM in assay [2] (10 uM, clone F4) came to 1.1; in assay [4] (10 uM) it was 1. In addition, the fold induction at 40 µM in assay [2] (40 uM, clone F4) was 1.1; in assay [4] (40 uM) it was 1. Further, the results for the “Firefly ERalpha transient, cmpd/DMSO (mean)” value in assay [3] (2 uM), in assay [3] (40 uM) and in assay [5] were 1.4, 1.2 and 1.4, respectively.
As to `Cc1ccc(NC(=O)c2n[nH]c3c2CCCCC3)cc1C` [Compound Z2], the “Firefly F4, cmpd/DMSO (mean)” value in assay [1] (Table 15, 2 uM) is on record as 1.4; in assay [1] (Table 15, 10 uM) it was 1.9; in assay [1] (Table 15, 40 uM), 0.6. Also, the fold induction at 2 µM in assay [2] (Table 15, 2 uM) came to 1.2; in assay [4] (Table 15, 2 uM) it was 1.2. For the same molecule, the fold induction at 10 µM in assay [2] (Table 15, 10 uM) was 1.8; in assay [4] (Table 15, 10 uM) it was 1.1. Besides, the fold induction at 40 µM in assay [2] (Table 15, 40 uM) amounted to 1.2; in assay [4] (Table 15, 40 uM) it was 1. Further, the “Firefly ERalpha transient, cmpd/DMSO (mean)” value is 1.6 in assay [3] (Table 15, 2 uM); 0.7 in assay [3] (Table 15, 40 uM); 1.1 in assay [5] (Table 15).
As to `N#Cc1c(C(F)(F)F)nc2ccc(Cl)cc2c1N1CCOCC1` [Compound Z43], the “Firefly F4, cmpd/DMSO (mean)” value in assay [1] (2 uM, clone F4) came to 1.3; in assay [1] (10 uM, clone F4) it was 0.8; in assay [1] (40 uM, clone F4) it was 0.8. Also, the fold induction at 2 µM amounted to 1 in assay [2] (2 uM, clone F4) and 1 in assay [4] (2 uM). The fold induction at 10 µM in assay [2] (10 uM, clone F4) stood at 0.9; in assay [4] (10 uM), 1. In addition, the fold induction at 40 µM came to 0.7 in assay [2] (40 uM, clone F4) and 0.9 in assay [4] (40 uM). Also, the entries for the “Firefly ERalpha transient, cmpd/DMSO (mean)” value in assay [3] (2 uM), in assay [3] (40 uM) and in assay [5] were 1.4, 1.6 and 0.9, respectively.
Take `O=c1cccc2n1CCN(c1nc(NCC3CCCO3)nc(N3CCOCC3)n1)C2` (stereo not drawn) [Compound 33]: the “Firefly F4, cmpd/DMSO (mean)” value in assay [1] (2 uM, clone F4) was found to be 0.8; in assay [1] (10 uM, clone F4) it was 1.0; in assay [1] (40 uM, clone F4) it was 1.1. In addition, the “Renilla F4, cmpd/DMSO (mean)” value came to 1.2 in assay [2] (2 uM, clone F4); 1.3 in assay [2] (10 uM, clone F4); 1.4 in assay [2] (40 uM, clone F4). Moreover, the “Firefly ERalpha transient, cmpd/DMSO (mean)” value amounted to 1.3 in assay [3] (2 uM), 1.4 in assay [3] (40 uM) and 1.3 in assay [5]. Also, the figures for the “Renilla ERalpha transient, cmpd/DMSO (mean)” value in assay [4] (2 uM), in assay [4] (10 uM) and in assay [4] (40 uM) were 1.2, 1.1 and 1.3, respectively.
In the case of `COc1ccc(-c2cc3n(n2)C(N)=C(C#N)C(c2ccc(N4CCOCC4)cc2)(C(F)(F)F)N3)cc1OC` (stereo not drawn) [Compound Z45], the “Firefly F4, cmpd/DMSO (mean)” value came out at 0.8 in assay [1] (2 uM, clone F4); 1.2 in assay [1] (10 uM, clone F4); 0.5 in assay [1] (40 uM, clone F4). Further, the fold induction at 2 µM was found to be 1.2 in assay [2] (2 uM, clone F4) and 1.1 in assay [4] (2 uM). Also, the fold induction at 10 µM in assay [2] (10 uM, clone F4) stood at 1.2; in assay [4] (10 uM), 0.8. Besides, the fold induction at 40 µM was 1.1 in assay [2] (40 uM, clone F4) and 1 in assay [4] (40 uM). For the same molecule, the “Firefly ERalpha transient, cmpd/DMSO (mean)” value in assay [3] (2 uM) turned out to be 0.8; in assay [3] (40 uM), 0.7; in assay [5], 0.6.
`CC(C)Nc1nc(N2CCOCC2)nc(N2CCn3c(cccc3=O)C2)n1` [Compound 34]: the “Firefly F4, cmpd/DMSO (mean)” value is 0.9 in assay [1] (2 uM, clone F4); 0.8 in assay [1] (10 uM, clone F4); 0.9 in assay [1] (40 uM, clone F4). The “Renilla F4, cmpd/DMSO (mean)” value in assay [2] (2 uM, clone F4) is 0.9; in assay [2] (10 uM, clone F4), 1.1; in assay [2] (40 uM, clone F4) it was 0.9. The “Firefly ERalpha transient, cmpd/DMSO (mean)” value in assay [3] (2 uM) was 1.1; in assay [3] (40 uM), 1.2; in assay [5] it was 1.2. The “Renilla ERalpha transient, cmpd/DMSO (mean)” value in assay [4] (2 uM) turned out to be 1.0; in assay [4] (10 uM), 1.1; in assay [4] (40 uM), 1.1.
On to `Cc1cc(C)c2ncc(C(=O)O)c(NCCCN(C)C)c2c1` [Compound Z28], for which the “Firefly F4, cmpd/DMSO (mean)” value in assay [1] (2 uM, clone F4) was determined as 1.0; in assay [1] (10 uM, clone F4), 0.9; in assay [1] (40 uM, clone F4) it was 1.3. Also, the fold induction at 2 µM was determined as 1 in assay [2] (2 uM, clone F4) and 1.1 in assay [4] (2 uM). The fold induction at 10 µM was 1.2 in assay [2] (10 uM, clone F4) and 1.3 in assay [4] (10 uM). Also, the fold induction at 40 µM in assay [2] (40 uM, clone F4) came out at 1.2; in assay [4] (40 uM), 1. The “Firefly ERalpha transient, cmpd/DMSO (mean)” value came out at 1.8 in assay [3] (2 uM), 1.3 in assay [3] (40 uM) and 1.1 in assay [5].
As to `CCOC(=O)c1cnc2c(C)cc(C)cc2c1N1CCC(O)CC1` [Compound Z78], the “Firefly F4, cmpd/DMSO (mean)” value in assay [1] (Table 15, 2 uM) was 1.4; in assay [1] (Table 15, 10 uM) it was 1.5; in assay [1] (Table 15, 40 uM), 1.6. In addition, the fold induction at 2 µM came out at 1.1 in assay [2] (Table 15, 2 uM) and 1 in assay [4] (Table 15, 2 uM). Besides, the fold induction at 10 µM in assay [2] (Table 15, 10 uM) was determined as 1; in assay [4] (Table 15, 10 uM), 0.9. Besides, the fold induction at 40 µM in assay [2] (Table 15, 40 uM) is 0.8; in assay [4] (Table 15, 40 uM) it was 0.6. Besides, the “Firefly ERalpha transient, cmpd/DMSO (mean)” value in assay [3] (Table 15, 2 uM) is recorded as 1.5; in assay [3] (Table 15, 40 uM), 1.1; in assay [5] (Table 15), 2.4.
Regarding `CC(C)Nc1nc(N2CCCC2)nc(N2CCn3c(cccc3=O)C2)n1` [Compound 35], the “Firefly F4, cmpd/DMSO (mean)” value is reported as 1.1 in assay [1] (2 uM, clone F4); 1.0 in assay [1] (10 uM, clone F4); 0.8 in assay [1] (40 uM, clone F4). Besides, the “Renilla F4, cmpd/DMSO (mean)” value in assay [2] (2 uM, clone F4) is listed as 1.1; in assay [2] (10 uM, clone F4), 0.9; in assay [2] (40 uM, clone F4) it was 0.9. Also, the “Firefly ERalpha transient, cmpd/DMSO (mean)” value in assay [3] (2 uM) is given as 1.0; in assay [3] (40 uM), 1.3; in assay [5], 0.9. For the same molecule, the “Renilla ERalpha transient, cmpd/DMSO (mean)” value worked out at 1.0 in assay [4] (2 uM), 1.0 in assay [4] (10 uM) and 1.1 in assay [4] (40 uM).
Consider `CNC(=O)c1cnc2c(C)cc(C)cc2c1NCCCN(C)C` [Compound Z30], for which the “Firefly F4, cmpd/DMSO (mean)” value in assay [1] (2 uM, clone F4) came out at 1.4; in assay [1] (10 uM, clone F4) it was 1.1; in assay [1] (40 uM, clone F4), 1.2. Further, the fold induction at 2 µM in assay [2] (2 uM, clone F4) stood at 1.1; in assay [4] (2 uM), 1.1. Further, the fold induction at 10 µM in assay [2] (10 uM, clone F4) stood at 1.1; in assay [4] (10 uM) it was 1.1. The fold induction at 40 µM in assay [2] (40 uM, clone F4) turned out to be 0.7; in assay [4] (40 uM), 1.6. Moreover, the “Firefly ERalpha transient, cmpd/DMSO (mean)” value stood at 1.4 in assay [3] (2 uM), 1.4 in assay [3] (40 uM) and 1.1 in assay [5].
